In patent publication US9682111B2, “Method for preventing or treating neurodegenerative diseases” (priority 2012, dated 2017):

Legend:
PC12 cells = assay: MPP+ induced injury of PC12 cells (PD model cells), MTT assay; type: cell-based, rat; design: Relative Cell Activity %: concentration or dose not given beside the values; settings: PC12 cells with MPP+ and test substance, 24 hours; for average OD value: MTT assay, model group 1.061 ± 0.035, normal control 2.198 ± 0.046; for Relative Cell Activity %: MTT, normal control 100, model group 48.3
Description: PC12 cells (rat adrenal pheochromocytoma cell strain), which show many similar characters with dopaminergic neurons, was cultured in DMEM medium (which contains 5% horse serum, 5% fetal bovine serum, 100 U/mL penicillin, 100 µg/mL streptomycin), in an incubator under 37° C., saturated humidity, and 5% CO2. The medium was replaced every 2-3 days, and the cells were subcultured when the cells cover 70-80% area of the plate. Cells in log phase and under fine growth conditions were chosen, and inoculated in 96 well plate at 1-5×10^5 and 100 μl per well. After culturing under 37° C. for 24 hours and the cells adhere to the walls of the wells, MPP^+ medium was added to the model group, a medium containing MPP^+(1-methyl-4-phenylpyridinium) and semen biotae extracts/diterpenoid compounds were added to experimental group, and a medium with no drug was added to the blank control group. Then the media were continued to culture in the incubator for 24 hours. MTT assay was used to evaluate cell activity.

[1] = system: Caenorhaditiselegans transgene strain CL4176 (expressing Aβ protein); assay: Paralysis of AD model elegans caused by Aβ (transgene strain CL4176); type: in vivo, Caenorhabditis elegans; settings: 15° C. then 26° C., paralysis counted every three hours, blank control 49.503 ± 0.445
Description: Caenorhaditiselegans (Caenorhaditiselegans) transgene strain CL4176 (expressing Aβ protein under temperature inducing) were synchronized and cultured under 15° C. to L1 phase, and then added into coated OP50 microbial medium dishes containing the extracted drugs with different concentrations, at around 25/dish. Three dishes were used in one group. The dishes were cultured under 15° C. for 12 hours and then cultured under 26° C. 36 hours after the change of culturing temperature, the paralyses of the elegans were observed. Count every three hours until all the elegans was paralyzed.

[2] = system: pPD95.86::α-SYN transgenic C. elegans; assay: Lifespan of α-SYN transgenic C. elegans (anti-elegan aging experiment); type: in vivo, Caenorhabditis elegans; settings: α-syn transgenic elegans on NGM plates with OP50, 20° C.; α-syn model 11.8 ± 3.66, N2 16 ± 5.68
From the text: pPD95.86::α-SYN transgenic C. elegans were establish by Sun et al. and preserved in the Department of Neurosurgery, the First Affiliated Hospital of Sun Yat-sen University, China. The method for establishing the α-SYN transgenic C. elegans was described in detail by Sun et al. (Toxic effect of Parkinson's disease gene α-Synuclein on Caenorhabditis elegants. New Medicine, 2013, 44 (4): 273-277.)
In brief, a wild-human α-SYN cDNA were amplified by PCR and inserted into the plasmid pPD95.86. Transgenic plasmids were isolated and injected into the gonad of synchronized N2 C. elegants at a concentration of 100 ng/μl. The transgenic F2 (second generation) worms was selected and then mutated under UV radiation. The UV treated F2 worms were backcrossed to wild type worms to generate stable α-SYN transgenic lines. The α-SYN transgenic lines express α-SYN and therefore have shorter life span and impaired motor functions.
A solution containing E. coli OP50, and biotae extracts and diterpenoid compounds of different concentrations are coated onto NGM plates. N2 elegans are synchronized to L4 phase under 20° C. Three plates are employed in one experimental group, and each plate includes about 25 elegans. The number of live elegans is recorded every day, and the elegans are transferred into a new NGM plate when the food is used up or there is mold contamination. The experiment pends till all the elegans are dead.

C=C1CC[C@@H]2[C@](C)(CCC[C@]2(C)C(=O)O)[C@H]1CCC(C)=O [1-Naphthalenecarboxylic acid, decahydro-1,4a-dimethyl-6-methylene-5-(3-oxobutyl)-, (1S,4aR,5S,8aR)-]
average OD value (PC12 cells): 1.391 ± 0.038
Relative Cell Activity % (PC12 cells): 63.3%
Average Living Time [1]: 50.991 ± 0.568 h
Living time [2]: 14.35 ± 3.9 days

C=C1CC[C@@H]2[C@](C)(CCC[C@]2(C)C(=O)O)[C@H]1/C=C/C(C)=O [1-Naphthalenecarboxylic acid, decahydro-1,4a-dimethyl-6-methylene-5-[(1E)-3-oxo-1-butenyl]-, (1S,4aS,5S,8aR)-]
Living time [2]: 14.75 ± 2.22 days

CC(C)c1c(O)ccc2c1CCC1C2(C)C(=O)CC(O)C1(C)C (stereo not drawn) [1-oxo-3β-hydroxytotarol]
average OD value (PC12 cells): 1.448 ± 0.057
Relative Cell Activity % (PC12 cells): 65.9%
Average Living Time [1]: 53.478 ± 0.357 h
Living time [2]: 14.6 ± 3.63 days

C=CC1(C)C=C2C=CC3C(C)(C(=O)O)CCCC3(C)C2CC1 (stereo not shown) [6,7-Dehydrosandarapimaric Acid]
average OD value (PC12 cells): 1.435 ± 0.044
Relative Cell Activity % (PC12 cells): 65.3%
Average Living Time [1]: 52.435 ± 0.484 h
Living time [2]: 14.7 ± 2.7 days

C=CC1(C)C=C2C(O)CC3C(C)(C(=O)O)CCCC3(C)C2CC1 (stereo not drawn) [7α-Hydroxysandaracopimaric acid]
Average Living Time [1]: 53.067 ± 0.455 h
Living time [2]: 14.3 ± 3.01 days

C=C[C@@](C)(O)CCC1C(=C)C(O)CC2C(C)(C(=O)O)CCCC12C (stereo partly drawn) [7β,13S-dihydroxylabda-8(17),14-dien-19-oic acid]
average OD value (PC12 cells): 1.359 ± 0.045
Relative Cell Activity % (PC12 cells): 61.8%
Living time [2]: 13.7 ± 2.85 days

C=C1CCC2C(C)(C(=O)O)CCCC2(C)C1CC1(O)OCC(O)C1(C)O (stereo not shown) [12,13,14-trihydroxylabda-12,15-epoxy-8(17)-en-19-oic acid]
average OD value (PC12 cells): 1.404 ± 0.057
Relative Cell Activity % (PC12 cells): 63.9%
Living time [2]: 14 ± 3.67 days

C=CC(C)(O)C(O)CC1C(=C)CCC2C(C)(C(=O)O)CCCC12C (stereo not shown) [12,13-Dihydroxylabda-8(17),14-dien-19-oic acid]
Average Living Time [1]: 51.008 ± 0.434 h
Living time [2]: 14.15 ± 3.1 days

C=C[C@@](C)(O)CC[C@H]1C(=C)CC[C@@H]2[C@]1(C)CCC[C@]2(C)C(=O)O [13-Epicupressic acid]
Average Living Time [1]: 54.015 ± 0.432 h
Living time [2]: 13.7 ± 3.34 days

C=C1CCC2C(C)(C(=O)O)CCCC2(C)C1C/C=C(\C)[C@@H](O)CO (stereo partly drawn) [14(R),15-Dihydroxy-8(17),12(E)-labdadien-19-oic acid]
average OD value (PC12 cells): 1.346 ± 0.059
Relative Cell Activity % (PC12 cells): 61.2%
Living time [2]: 14.5 ± 3.76 days

C=C1CCC2C(C)(C(=O)OC)CCCC2(C)C1C/C=C/C (stereo not shown) [14,15-Bisnor-8(17),12E-labdadien-19-oic acid methyl ester]
average OD value (PC12 cells): 1.536 ± 0.035
Relative Cell Activity % (PC12 cells): 69.9%
Living time [2]: 14.8 ± 3.24 days

C=C1CCC2C(C)(C(=O)O)CCCC2(C)C1CCCC(=O)O (stereo not shown) [14,15-bisnor-8(17)-labdene-16,19-dioic acid]
average OD value (PC12 cells): 1.292 ± 0.072
Relative Cell Activity % (PC12 cells): 58.8%
Average Living Time [1]: 51.892 ± 0.322 h
Living time [2]: 14.35 ± 3.38 days

C=C1CCC2C(C)(C(=O)O)CCCC2(C)C1CC/C(=C\CO)CO (stereo not shown) [15,16-Dihydroxy-8(17),13(E)-labdadien-19-oic acid]
Average Living Time [1]: 51.217 ± 0.397 h
Living time [2]: 14.35 ± 2.62 days

C=C1CCC2C(C)(C(=O)O)CCCC2(C)C1CCC1=CC(O)OC1=O (stereo not shown) [15-Hydroxypinusolidic acid]
average OD value (PC12 cells): 1.585 ± 0.057
Relative Cell Activity % (PC12 cells): 72.1%
Average Living Time [1]: 51.575 ± 0.257 h
Living time [2]: 14.1 ± 4.68 days

C=C1CCC2C(C)(C(=O)O)CCCC2(C)C1CCC1=CC(OC)OC1=O (stereo not shown) [15-Methoxypinusolidic acid]
Average Living Time [1]: 55.012 ± 0.399 h
Living time [2]: 13.55 ± 4.05 days

C=C1CCC2C(C)(C(=O)O)CCCC2(C)C1CC1OCC=C1CC (stereo not shown) [16-Methyl-12,15-epoxy-8(17),13-labdadien-19-oic acid]
Average Living Time [1]: 54.336 ± 0.377 h
Living time [2]: 13.95 ± 3.9 days

C=C1CC[C@@H]2[C@](C)(CCC[C@]2(C)C(=O)O)[C@H]1CC[C@H](C)CCO [Imbricatolic acid]
Average Living Time [1]: 55.857 ± 0.428 h
Living time [2]: 14.25 ± 2.67 days

C=C1CC[C@@H]2[C@](C)(CCC[C@]2(C)C(=O)O)[C@H]1CC/C(C)=C/CO [Isocupressic acid]
Average Living Time [1]: 53.879 ± 0.414 h
Living time [2]: 14.85 ± 2.66 days

C=C[C@@]1(C)CC[C@H]2C(=CC[C@@H]3[C@]2(C)CCC[C@@]3(C)C(=O)O)C1 [Isopimaric acid]
Average Living Time [1]: 52.785 ± 0.432 h
Living time [2]: 14.9 ± 1.55 days

C=C1CC[C@@H]2[C@](C)(CCC[C@]2(C)C(=O)O)[C@H]1C/C=C(\C)C=O [Naphthalenecarboxylic acid, decahydro-1,4a-dimethyl-6-methylene-5-[(2E)-3-methyl-4-oxo-2-butenyl]-, (1S,4aR,5S,8aR)-]
average OD value (PC12 cells): 1.236 ± 0.085
Relative Cell Activity % (PC12 cells): 56.2%
Average Living Time [1]: 52.136 ± 0.415 h
Living time [2]: 14.4 ± 3.42 days

C=C1CC[C@@H]2[C@](C)(CCC[C@]2(C)C(=O)OC)[C@H]1CCC1=CCOC1=O [Pinusolide]
Average Living Time [1]: 54.003 ± 0.287 h
Living time [2]: 15.6 ± 2.74 days

C=C1CC[C@@H]2[C@](C)(CCC[C@]2(C)C(=O)O)[C@H]1CCC1=CCOC1=O [Pinusolidic acid]
average OD value (PC12 cells): 1.224 ± 0.057
Relative Cell Activity % (PC12 cells): 55.7%
Living time [2]: 13.8 ± 3.37 days

C=CC1(C)C=C2CCC3C(C)(CO)C(O)CCC3(C)C2CC1 (stereo not drawn) [Sandaracopimaradiene-3β,18-diol]
average OD value (PC12 cells): 1.652 ± 0.015
Relative Cell Activity % (PC12 cells): 75.1%
Living time [2]: 14.05 ± 3.49 days

C=C[C@]1(C)C=C2CC[C@@H]3[C@](C)(CCC[C@@]3(C)C(=O)O)[C@H]2CC1 [Sandaracopimaric acid]
Average Living Time [1]: 53.616 ± 0.443 h
Living time [2]: 15.85 ± 3.1 days

Isopinusolide
Average Living Time [1]: 53.988 ± 0.320 h
Living time [2]: 13.9 ± 3.65 days

Platyclolactonic Acid
Living time [2]: 13.95 ± 2.26 days

Platyclolactonic Acid Methyl Ester
Average Living Time [1]: 51.393 ± 0.487 h
Living time [2]: 14.3 ± 3.08 days
